From PubChem BioAssay (NCI)
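Results reflect a 48-hour exposure of cells in 96-well plates to compound at five concentrations. TGI marks complete inhibition of growth.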

What was measured:
Assay in all cases: NCI tumour cell line growth inhibition, 48 h
[1] = test system: A498 renal
[2] = test system: BT-549 breast
[3] = test system: EKVX NSCLC
[4] = test system: HCC-2998 colon
[5] = test system: HCT-15 colon
[6] = test system: HOP-92 NSCLC
[7] = test system: M14 melanoma
[8] = test system: M19-MEL melanoma
[9] = test system: MALME-3M melanoma
[10] = test system: MCF7 breast
[11] = test system: MOLT-4 leukemia
[12] = test system: NCI-H226 lung
[13] = test system: NCI-H460 lung
[14] = test system: NCI/ADR-RES ovarian
[15] = test system: OVCAR-8 ovarian
[16] = test system: SF-268 CNS
[17] = test system: SF-295 CNS
[18] = test system: SNB-19 CNS
[19] = test system: SR leukemia
[20] = test system: U251 CNS

For `Cc1c2cc[n+](C)cc2c(C)c2c1[nH]c1ccc(Cl)cc12`, the TGI [1] was 1.4 µM, the TGI [2] was 4.16 µM and the TGI [3] was 14.1 µM. For the same compound, the TGI [4] was 13.8 µM, the TGI [5] was greater than 100 µM and the TGI [6] was 26.5 µM. The TGI [7] was 40.6 µM, the TGI [8] was 3.94 µM and the TGI [9] was 10.4 µM. The TGI [10] was 15.9 µM, the TGI [11] was 58.4 µM and the TGI [12] was 4.57 µM. It also gave a TGI [13] of 54 µM, a TGI [14] greater than 100 µM and a TGI [15] of 15.5 µM. For the same compound, the TGI [16] was 0.831 µM, the TGI [17] was 4.37 µM and the TGI [18] was 1.21 µM. The TGI [19] was greater than 78.1 µM and the TGI [20] was 1.15 µM.
`CCOC(=O)N1CCN(c2nc(C)n(-c3ccccc3)c(=S)c2C#N)CC1` showed a TGI [1] greater than 100 µM, a TGI [2] greater than 100 µM and a TGI [3] greater than 100 µM. For the same compound, the TGI [4] was greater than 100 µM, the TGI [5] was greater than 100 µM and the TGI [6] was greater than 100 µM. The TGI [7] was greater than 100 µM, the TGI [9] was greater than 100 µM and the TGI [10] was greater than 100 µM. The TGI [11] was greater than 100 µM, the TGI [12] was greater than 100 µM and the TGI [13] was greater than 100 µM. The TGI [14] was greater than 100 µM, the TGI [15] was greater than 100 µM and the TGI [16] was greater than 100 µM. For the same compound, the TGI [17] was greater than 100 µM, the TGI [18] was greater than 100 µM and the TGI [19] was greater than 100 µM. For the same compound, the TGI [20] was greater than 100 µM.
Compound `Cc1coc2c1C(=O)C(=O)c1c-2ccc2c1CCCC2(C)C` has a TGI [1] of 25.6 µM, a TGI [2] of 9.28 µM and a TGI [3] greater than 100 µM. The TGI [4] was 21.7 µM, the TGI [5] was 6.4 µM and the TGI [6] was greater than 100 µM. It also gave a TGI [7] of 2.46 µM, a TGI [9] of 2.3 µM and a TGI [10] of 5.89 µM. It also gave a TGI [11] greater than 100 µM, a TGI [12] of 11.2 µM and a TGI [13] of 10.4 µM. For the same compound, the TGI [14] was greater than 100 µM, the TGI [15] was greater than 100 µM and the TGI [16] was greater than 100 µM. It also gave a TGI [17] of 8.49 µM, a TGI [18] of 22.8 µM and a TGI [19] of 7.03 µM. For the same compound, the TGI [20] was greater than 100 µM.
Compound `C=C(Br)C(C)(Br)CCC(Br)C(C)(C)Br` (stereo not drawn) has a TGI [5] greater than 100 µM, a TGI [6] of 40.6 µM and a TGI [7] of 61.3 µM. The TGI [8] was 35.8 µM, the TGI [9] was 81.8 µM and the TGI [11] was 94.2 µM. For the same compound, the TGI [12] was greater than 100 µM, the TGI [13] was greater than 100 µM and the TGI [15] was 33.3 µM. The TGI [16] was 91 µM, the TGI [17] was 62 µM and the TGI [19] was 54.7 µM. It also gave a TGI [20] of 38.4 µM.
Work on `O=c1c2cc(-c3ccccc3)cnc2sn1-c1ccc(Oc2ccccc2)cc1` yielded a TGI [1] of 78.6 µM, a TGI [2] of 62.4 µM and a TGI [3] greater than 100 µM. For the same compound, the TGI [4] was greater than 100 µM, the TGI [5] was greater than 100 µM and the TGI [6] was greater than 100 µM. For the same compound, the TGI [7] was greater than 100 µM, the TGI [9] was greater than 100 µM and the TGI [10] was greater than 100 µM. It also gave a TGI [11] greater than 100 µM, a TGI [12] greater than 100 µM and a TGI [13] greater than 100 µM. It also gave a TGI [14] of 80.1 µM, a TGI [15] greater than 100 µM and a TGI [16] greater than 100 µM. For the same compound, the TGI [17] was greater than 100 µM, the TGI [18] was 54.7 µM and the TGI [19] was greater than 100 µM. It also gave a TGI [20] of 78.1 µM.
With `O=C1C(c2c(O)[nH]c3ccccc23)=Nc2ccc(Br)cc21` the TGI [1] was 21 µM, the TGI [2] was 77.2 µM and the TGI [3] was 61.1 µM. It also gave a TGI [4] greater than 100 µM, a TGI [5] greater than 100 µM and a TGI [6] of 50.4 µM. It also gave a TGI [7] greater than 100 µM, a TGI [9] greater than 100 µM and a TGI [10] of 18.2 µM. For the same compound, the TGI [11] was 40.8 µM, the TGI [12] was 68.1 µM and the TGI [13] was greater than 100 µM. The TGI [14] was greater than 100 µM, the TGI [15] was 49.4 µM and the TGI [16] was 90.2 µM. The TGI [17] was 89.6 µM, the TGI [18] was 76.2 µM and the TGI [19] was greater than 100 µM. It also gave a TGI [20] of 48 µM.
With `COc1ccc2oc(=O)c(-c3nc4ccccc4o3)cc2c1` the TGI [1] was greater than 100 µM, the TGI [2] was greater than 100 µM and the TGI [3] was greater than 100 µM. It also gave a TGI [4] greater than 100 µM, a TGI [5] greater than 100 µM and a TGI [6] greater than 100 µM. The TGI [7] was greater than 100 µM, the TGI [9] was greater than 100 µM and the TGI [10] was greater than 100 µM. It also gave a TGI [11] greater than 100 µM, a TGI [12] greater than 100 µM and a TGI [13] greater than 100 µM. It also gave a TGI [14] greater than 100 µM, a TGI [15] greater than 100 µM and a TGI [16] greater than 100 µM. For the same compound, the TGI [17] was greater than 100 µM, the TGI [18] was greater than 100 µM and the TGI [19] was 49.7 µM. It also gave a TGI [20] greater than 100 µM.
`CC(=O)NC1C(OC2C(CO)OC(OCC3OC(n4ccc(N)nc4=O)C(O)C3O)C(NC(C)=O)C2O)OC(CO)C(O)C1O` (stereo not drawn) was tested, and the TGI [1] was greater than 100 µM, the TGI [2] was greater than 100 µM and the TGI [3] was greater than 100 µM. It also gave a TGI [4] greater than 100 µM, a TGI [5] greater than 100 µM and a TGI [6] greater than 100 µM. For the same compound, the TGI [7] was greater than 100 µM, the TGI [9] was greater than 100 µM and the TGI [10] was greater than 100 µM. The TGI [11] was greater than 100 µM, the TGI [12] was greater than 100 µM and the TGI [13] was greater than 100 µM. The TGI [14] was greater than 100 µM, the TGI [15] was greater than 100 µM and the TGI [16] was greater than 100 µM. The TGI [17] was greater than 100 µM, the TGI [18] was greater than 100 µM and the TGI [19] was greater than 100 µM. For the same compound, the TGI [20] was greater than 100 µM.
For `CNCCCNC1(c2cc3ccccc3s2)CCCCC1`, the TGI [1] was 14.1 µM, the TGI [2] was 29.8 µM and the TGI [3] was 26.4 µM. It also gave a TGI [4] of 2.61 µM, a TGI [5] of 21.7 µM and a TGI [6] of 14.8 µM. The TGI [7] was 8.06 µM, the TGI [9] was 4.57 µM and the TGI [10] was 15.5 µM. The TGI [11] was 7.48 µM, the TGI [12] was 36.6 µM and the TGI [13] was 9.09 µM. For the same compound, the TGI [14] was 29.9 µM, the TGI [15] was 28.4 µM and the TGI [16] was 25.3 µM. It also gave a TGI [17] of 27.5 µM, a TGI [18] of 24.8 µM and a TGI [19] of 3.44 µM. The TGI [20] was 16.4 µM.
With `CC(C)[Si](OC1=C(c2ccccc2)C(NC(=O)/C=C/c2ccc([N+](=O)[O-])cc2)CCC1)(C(C)C)C(C)C` (stereo not drawn) the TGI [1] was greater than 100 µM, the TGI [2] was greater than 100 µM and the TGI [3] was greater than 100 µM. It also gave a TGI [4] greater than 100 µM, a TGI [5] greater than 100 µM and a TGI [6] greater than 100 µM. For the same compound, the TGI [7] was greater than 100 µM, the TGI [9] was greater than 100 µM and the TGI [10] was greater than 100 µM. For the same compound, the TGI [11] was greater than 100 µM, the TGI [12] was greater than 100 µM and the TGI [13] was greater than 100 µM. The TGI [14] was greater than 100 µM, the TGI [15] was greater than 100 µM and the TGI [16] was greater than 100 µM. For the same compound, the TGI [17] was greater than 100 µM, the TGI [18] was greater than 100 µM and the TGI [19] was greater than 100 µM. For the same compound, the TGI [20] was greater than 100 µM.
In the case of `CCOC1(OCC)N=C(N)C2(C#N)C3(C(=O)N(C(C)C)N=C3C)C12C#N` (stereo not drawn), the TGI [1] was greater than 100 µM, the TGI [2] was greater than 100 µM and the TGI [3] was greater than 100 µM. It also gave a TGI [4] greater than 100 µM, a TGI [5] greater than 100 µM and a TGI [6] greater than 100 µM. It also gave a TGI [7] greater than 100 µM, a TGI [9] greater than 100 µM and a TGI [10] greater than 100 µM. It also gave a TGI [11] greater than 100 µM, a TGI [12] greater than 100 µM and a TGI [13] greater than 100 µM. The TGI [14] was greater than 100 µM, the TGI [15] was greater than 100 µM and the TGI [16] was greater than 100 µM. The TGI [17] was greater than 100 µM, the TGI [18] was greater than 100 µM and the TGI [19] was greater than 100 µM. For the same compound, the TGI [20] was greater than 100 µM.
With `CC(=O)OC[C@@]1(C)[C@@H]2[C@@H]3[C@@]4(CO[C@]3(C)C(=O)[C@@]3(O)C[C@H](C)[C@H](OC(C)=O)[C@@H]3[C@H]4OC(C)=O)[C@H](OC(=O)c3ccccc3)C[C@@H]21` the TGI [1] was greater than 100 µM, the TGI [2] was greater than 100 µM and the TGI [3] was greater than 100 µM. It also gave a TGI [4] greater than 100 µM, a TGI [5] greater than 100 µM and a TGI [6] greater than 100 µM. It also gave a TGI [7] greater than 100 µM, a TGI [9] greater than 100 µM and a TGI [10] greater than 100 µM. The TGI [11] was greater than 100 µM, the TGI [12] was greater than 100 µM and the TGI [13] was greater than 100 µM. The TGI [14] was greater than 100 µM, the TGI [15] was greater than 100 µM and the TGI [16] was greater than 100 µM. For the same compound, the TGI [17] was greater than 100 µM, the TGI [18] was greater than 100 µM and the TGI [19] was greater than 100 µM. The TGI [20] was greater than 100 µM.
